The source of these data is patent publication US10793514B2, “Glutamine transport inhibitors and methods for treating cancer” (Vanderbilt University, priority 2016, dated 2020).

Common to all, as to format: cell-based, human
For assay [1], the system named is HCC1806 cells. Description: Immunoblot of pS6 and pERK in HCC1806 cells. The following applies: 25 μM, 48 hrs. As to the method: For immunoreactivity studies, tissue samples were diluted to 100 mg/mL in lysis buffer (#7018s, Cell Signaling Technology) and subsequently homogenized, sonicated, and spun at 3.5K RPM for 1 min. Lysate samples were then screened against an array of target-specific capture antibodies using PathScan Intracellular Signaling Array Kits (#7323, Cell Signaling Technology) in accordance with the manufacturer's instructions and developed using HyBlot CL autoradiography film (# e3012, Denville Scientific Inc.). Processed films were digitized using an Epson Perfection V600 Photo scanner and the relative pixel intensities for each blot quantified using the image processing software ImageJ. Complementary western blot studies were performed by loading 20-40 μg of protein into 7.5-12% SDS PAGE gels, […]. Membranes were blocked overnight at 4° C. in trisbuffered saline 0.1% Tween-20 (TBST) containing 5% w/v nonfat dry milk powder and subsequently incubated with antibodies to p-ERK 1/2 Thr202/Tyr204 (Cell Signaling, 4370), pS6 (Cell Signaling, #4858) LC3B, (anti LC3B, Cell signaling 2775), or b-tubulin (Novus Biologicals, NB600-936); Membrane chemiluminescence was imaged on a Xenogen IVIS 200 system.
(In general: Immunoblotting shows a protein as a band on a membrane.)

The subject of assay [2] is HCC1806 cells. Kind of assay: Fluorescence redox ratio imaging. The following applies: 10 μM, 48 h. As to the method: HCC1806 cells were plated on 35-mm glass-bottom petri dishes for imaging (MatTek Corp). Fluorescence intensity and lifetime images were acquired using a custom-built multiphoton fluorescence lifetime system (Bruker), with a 40× oil-immersion objective (1.3 NA) and an inverted microscope (TiE, Nikon). A titanium:sapphire laser (Chameleon Ultra II, Coherent) was tuned to 750 nm for two-photon excitation of NAD(P)H and tuned to 890 nm for two-photon excitation of FAD. A 440/80 nm bandpass filter was used to collect NAD(P)H fluorescence emission, and a 550/100 nm was used to collect FAD emission. […] A GaAsP PMT (H7422P-40, Hamamatsu) detected emitted photons. […] Time-correlated single photon counting electronics (SPC-150, Becker and Hickl) were used to acquire fluorescence decay curves. […] Fluorescence lifetime validation was performed by imaging a fluorescent bead (Polysciences Inc) and confirming that the measured lifetime (2.1 ns) agreed with previously published values^22. […]
An automated cell segmentation routine was written using CellProfiler to identify individual cell cytoplasms and extract average fluorescence intensity and fluorescence lifetime values for each cell in the field of view. Intensity values for each pixel were calculated by integrating the decay curve for each pixel. […]

For assay [3], the system named is HCC1806 cells. Description: Glutathione and reactive oxygen species in HCC1806 cells. As for the experimental part:
Glutathione levels were measured using a commercially available kit (Cayman Chemical 703002) according to the manufacturers protocol. Concurrently ROS was measured in cells using CM-H2DCFDA (Life Technologies C6827) coupled with flow cytometry in accordance with the manufacturers protocol. The assay was replicated replicated at least three times, technically and biologically. Significance was calculated using a t-test in Graphpad Prism. Error is reported as standard deviation (SD).

Take `Cc1cccc(COc2ccccc2CN(CCC(N)C(=O)O)Cc2ccccc2OCc2cccc(C)c2)c1` (centres unmarked) [Compound V-9302]: in the assay on HCC1806 cells [1], the pERK result is reported as “modest decrease in pERK” and the pS6 entry is recorded as “significantly decreased pS6”. Besides, in the assay on HCC1806 cells [2], the “fluorescent lifetimes of NAD(P)H and FAD” value was “decreased the fluorescent lifetimes of both NAD(P)H and FAD”. In addition, in the assay on HCC1806 cells [3], the “intracellular reactive oxygen species (ROS)” value is on record as “corresponding increase in intracellular reactive oxygen species (ROS)”; the “oxidized (GSSG) and reduced (GSH) glutathione” value is “increased levels of oxidized glutathione (GSSG) at the expense of reduced glutathione (GSH)”.
